This is an account of results in US20230181905A1, “Systems, Devices, and Methods for Enhancing the Neuroprotective Effects of Non-Invasive Gamma Stimulation with Pharmacological Agents” (Massachusetts Institute of Technology, priority 2021, published 2023).

What all share (assay type): in vivo, mouse
Assay [1] has as its system vGLUT1. As to the kind of experiment: vGLUT1 western blot and puncta, overall and within WFA. As to conditions: 5×FAD mice. The source says: It was reasoned that the increased WFA coverage and enhanced phase locking of neurons after these treatments are related. […] WFA has been predominantly observed around interneurons, specifically PV interneurons. vGLUT1 (Synaptic Systems, #1135 302), an excitatory synaptic marker, was labeled with WFA. It was observed that the overall vGLUT1 signal was higher after Plx3397+GENUS treatment in mice (ANOVA, F (3,22)=3,686, P=0.0273) (FIGS. 18A, 18B). WFA was 3D rendered and surface created and examined (vGLUT1) within WFA, and observed increased vGLUT1 within WFA (Nested ANOVA, F (3,29)=3.377, P=0.0493) (FIGS. 18A, 18C).
vGAT and vGLUT1 puncta: LSM 710, with a 40× objective, was used to acquire the images. The entire […] thickness of the slices was acquired in Z stacks—80 per image (step of 0.5 μm). The spot-count inbuilt function in Imarisx64 9.3 was used to count cells automatically.
These observations point to synaptic connectivity, PNN extracellular architecture, and myelination as biological processes that GENUS impacts to improve the outcomes in Plx3397 administered 5×FAD mice. To further validate this, additional biochemical analyses were performed. […]
The brain was perfused with PBS and fixed with 4% PFA. […] Signal intensities were quantified using ImageJ 1.46q and normalized to values of loading control.
On the technique in general: Immunoblotting shows a protein as a band on a membrane.

Assay [2] has as its system IBA1+ microglia. As to the kind of experiment: Iba1+ microglia counts in APOE4-KI 5×FAD hippocampus. On the procedure:
Hippocampal mouse brain sections were stained for Iba1, a microglia/macrophage specific marker, and cell numbers were counted. […] Next, 7-8 month old male APOE4-KI 5×FAD animals were treated with 3 weeks of PLX3397 diet (or control), followed by 21 days of A+V GENUS, during which animals remained on their diets (FIG. 37).

For assay [3], the system named is amyloid plaques (D54D2). Nature of the assay: D54D2 amyloid plaque staining in APOE4-KI 5×FAD hippocampus. As to conditions: APOE4-KI 5×FAD mice, PLX3397 diet combined with 21 days A+V GENUS. The procedure:
Given that APOE4+ individuals accumulate A #earlier than non-carriers, and that APOE facilitates the response of microglia to amyloid, GENUS outcomes in an APOE4-KI amyloid model were examined. To this end, 21d A+V (audio and visual) GENUS in APOE-KI 5×FAD model was performed and amyloid and microglial outcomes were examined.
Next, 7-8 month old male APOE4-KI 5×FAD animals were treated with 3 weeks of PLX3397 diet (or control), followed by 21 days of A+V GENUS, during which animals remained on their diets (FIG. 37).

On to `FC(F)(F)c1ccc(CNc2ccc(Cc3c[nH]c4ncc(Cl)cc34)cn2)cn1` [Plx3397, Pexidartinib], for which, in assay [1] (visual cortex, control 100±7.30), the “vGLUT1 level (western blot)” value was found to be 130.1±10.05. Also, in assay [1] (controls 313.4±13.20), the “vGLUT1 synaptic puncta in the WFA of PV interneurons” value was 332.7±13.14 % of no treatment control. For the same compound, in assay [2] (APOE4-KI 5×FAD mice on PLX3397 diet), the “microglia numbers (Iba1+ cell counts), GENUS vs no GENUS after depletion” value is reported as “not further modified”. Besides, the microglia numbers result in assay [2] (male APOE4-KI 5×FAD mice, hippocampus, PLX3397 diet vs standard diet) is “significant reduction”. In addition, in assay [3] (hippocampus CA1), the amyloid plaque number entry was “significant reduction”. The amyloid total area result in assay [3] is given as “significant reduction”. For the same compound, in assay [3] (vs standard diet), the “amyloid staining mean intensity” value was “significant reduction”.
